For 19 molecules, EC50 results are on record in patent US8618151B2, “Inhibitors of HCV NS5A” (Presidio Pharmaceuticals, Inc., priority 2008, dated 2013).

This test concerns HCV genotype 1b replicon. The test can be described thus: HCV replicon assay (1b_Huh-Luc/Neo-ET cell line, luciferase readout). To be noted: Hepatitis C virus, Huh-7, 72 h, read-out: Inhibition of HCV genotype 1b. It counts as cell-based. The gist of the method:
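Luciferase activity (Bright-Glo) after 72 h compound exposure, in triplicate, measured replicon levels in Huh 7-derived 1b_Huh-Luc/Neo-ET cells. EC50 was fitted from percent-of-control values and determined in repeat runs.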
Turning to `COC(=O)N[C@H](C(=O)N1CCC[C@H]1c1ncc(-c2ccc(-c3ccc4nc(-c5cnc([C@@H]6CCCN6C(=O)[C@@H](NC(=O)OC)C(C)C)[nH]5)sc4c3)cc2)[nH]1)C(C)C` [compound 258], the EC50 is less than 1 nM. Regarding `COC(=O)N[C@@H](C(=O)N1CCC[C@H]1c1nc(-c2ccc3nc(-c4ccc(-c5cnc([C@@H]6CCCN6C(=O)[C@H](NC(=O)OC)c6ccccc6)[nH]5)cc4)cc(OC)c3c2)c[nH]1)c1ccccc1` [compound 78], the EC50 was less than 1 nM. Regarding `COC(=O)N[C@H](C(=O)N1CCC[C@H]1c1ncc(-c2ccc(-c3ccc4cc(-c5cnc([C@@H]6COCCN6C(=O)[C@@H](NC(=O)OC)C(C)C)[nH]5)ccc4c3)cc2)[nH]1)C(C)C` [compound 140], the EC50 is less than 1 nM. As to `CNC(=O)N[C@@H](C(=O)N1CCC[C@H]1c1ncc(-c2ccc3nc(-c4ccc(-c5cnc([C@@H]6CCCN6C(=O)[C@@H](NC(=O)OC)C(C)C)[nH]5)cc4)sc3c2)[nH]1)c1ccccc1` [compound 245], the EC50 was less than 1 nM. As for `COC(=O)N[C@H](C(=O)N1CCC[C@H]1c1ncc(-c2ccc3cc(-c4ccc5nc([C@@H]6CCCN6C(=O)[C@@H](NC(=O)OC)C6CCCC6)[nH]c5c4)ccc3c2)[nH]1)C1CCCC1` [compound 218], the figure is less than 1 nM; as for `COC(=O)N[C@H](C(=O)N1CCC[C@H]1c1ncc(-c2ccc(-c3cc4ccc(-c5cnc([C@@H]6CCCN6C(=O)[C@@H](NC(=O)OC)C6CCOCC6)[nH]5)cc4cn3)cc2F)[nH]1)C(C)C` [compound 128], less than 1 nM. Consider `COC(=O)N[C@H](C(=O)N1CCC[C@H]1c1ncc(-c2ccc(-c3ccc4cc(-c5c[nH]c([C@@H]6CCCN6C(=O)[C@H](NC(=O)NC(C)(C)C)c6ccccc6)n5)ccc4c3)cc2)[nH]1)C(C)C` [compound 23], for which the EC50 was less than 1 nM. Regarding `COC(=O)N[C@H](C(=O)N1CCC[C@H]1c1nc2c([nH]1)-c1ccc(-c3cc4ccc(-c5cnc([C@@H]6CCCN6C(=O)[C@H](NC(=O)OC)c6ccccc6)[nH]5)cc4cn3)cc1CC2)C(C)C` [compound 294], the EC50 was less than 1 nM. Then `COC(=O)N[C@H](C(=O)N1CCC[C@H]1c1ncc(-c2ccc(-c3ccc4cc(-c5c[nH]c([C@@H]6CCCN6C(=O)[C@H](NC(=O)OC)c6ccccc6)n5)ccc4c3)c(F)c2)[nH]1)C1CCOCC1` [compound 106], with less than 1 nM; and `COC(=O)N[C@@H](C(=O)N1CCC[C@H]1c1nc(-c2ccc3nc(-c4ccc(-c5cnc([C@@H]6CCCN6C(=O)[C@H](NC(=O)OC)c6ccccc6)[nH]5)cc4F)ccc3c2)c[nH]1)c1ccccc1` [compound 97], with less than 1 nM; and `COC(=O)N[C@H](C(=O)N1CCC[C@H]1c1ncc(-c2ccc3nc(-c4ccc(-c5cnc([C@@H]6CCCN6C(=O)[C@@H](NC(=O)OC)C(C)C)[nH]5)c(F)c4)ccc3c2)[nH]1)C(C)C` [compound 126], with less than 1 nM. For `COC(=O)N[C@H](C(=O)N1CCC[C@H]1c1ncc(-c2ccc(-c3ccc4cc(-c5c[nH]c([C@@H]6CCCN6C(=O)[C@@H](c6ccccc6)N6CCCC6)n5)ccc4c3)cc2)[nH]1)C(C)C` [Compound 9], the EC50 was less than 1 nM. In the case of `CCNC(=O)N[C@@H](C(=O)N1CCC[C@H]1c1ncc(-c2ccc(-c3ccc4cc(-c5c[nH]c([C@@H]6CCCN6C(=O)[C@@H](NC(=O)OC)C(C)C)n5)ccc4n3)cc2)[nH]1)c1ccccc1` [compound 33], the EC50 is less than 1 nM.

`COC(=O)N[C@@H](C(=O)N1CCC[C@H]1c1nc(-c2ccc3nc(-c4ccc(-c5cnc([C@@H]6CCCN6C(=O)[C@H](NC(=O)OC)c6ccccc6)[nH]5)c(F)c4)ccc3c2)c[nH]1)c1ccccc1` [compound 109]: the EC50 was less than 1 nM. As to `COC(=O)N[C@H](C(=O)N1CCC[C@H]1c1nc(-c2ccc3cc(-c4ccc(-c5cnc([C@@H]6CCCN6C(=O)[C@@H](c6ccccc6)N(C)C)[nH]5)cc4)ccc3c2)c[nH]1)C(C)C` [compound 5], the EC50 is less than 1 nM.

With `COC(=O)N[C@@H](C)C(=O)N1CCC[C@H]1c1nc(-c2ccc3nc(N4CCC(c5cnc([C@@H]6CCCN6C(=O)[C@H](C)NC(=O)OC)[nH]5)CC4)ccc3c2)c[nH]1` [compound 273], the EC50 is 1 to 9.9 nM. As to `COC(=O)N[C@H](C(=O)N1CCC[C@H]1c1nc(-c2ccc3nc(-c4ccc(-c5cnc([C@@H]6CCCN6C(=O)[C@@H](NC(=O)OC)[C@@H](C)OC)[nH]5)cc4)ccc3c2)c[nH]1)C(C)C` [compound 43], the EC50 was less than 1 nM. Then `COC(=O)N[C@H](C(=O)N1CCC[C@H]1c1nc(-c2ccc3nc(C45CCC(c6cnc([C@@H]7CCCN7C(=O)[C@@H](NC(=O)OC)C7CC7)[nH]6)(CC4)CC5)ccc3c2)c[nH]1)C1CC1` [compound 265], with less than 1 nM; and `COC(=O)N[C@@H](C(=O)N1CCC[C@H]1c1nc(-c2ccc3c(c2)CCN(c2ccc(-c4cnc([C@@H]5CCCN5C(=O)[C@H](NC(=O)OC)c5ccccc5)[nH]4)cc2)C3=O)c[nH]1)c1ccccc1` [compound 289], with less than 1 nM.
